These compounds were tested on humanized mice (NOG-hGM-CSF/hIL-3 Tg mice) (assay: Evans blue vascular permeability assay ((R)-Zinc3573-induced, ear)). Settings: 10 mg/kg orally, 30 min before intradermal (R)-Zinc3573 3 μM into the ear; Evans blue dye; mean and standard error of mean.
Type: in vivo
Method: Experimental Example 2: Evans Blue Vascular Permeability Assay
Twenty-five to twenty-six-week-old humanized mice (NOG-hGM-CSF/hIL-3 Tg mice at 17-18 weeks after transplantation of human umbilical cord blood-derived CD34+ cells; Central Institute for Experimental Animals) were anesthetized with isoflurane and injected intravenously with 200 μL of 0.5% Evans blue (cat. no. 056-04061; FUJIFILM Wako Pure Chemical Corporation). Subsequently, vehicle (0.5w/v % Methyl Cellulose) or 10 mg/kg of EX.381 were orally administered. After 30 minutes, animals were anesthetized with isoflurane and injected intradermally with 10 μL of (R)-Zinc3573 ((R)-Zinc; 3 μM, cat. no. SML1699; Sigma-Aldrich) into the right ear or with saline (0.1% DMSO) into the left ear as a control. Fifteen minutes after intradermal injection, animals were sacrificed and the ears were collected in 1.5 mL tubes. Evans blue dye was extracted from the tissue by adding 150 μL of N, N-dimethyl formamide (cat. no. 04096-34; nacalai tesque) for 12 hours at 55° C. […] The plate was read at 620 nm and 740 nm on a plate reader and the Evans blue dye concentration in each sample was determined by a standard curve using corrected absorbance (corrected absorbance=A620-A740). […] Data is expressed as mean and standard error of mean. […]

| Structure (SMILES) | Inhibition % [%] |
| --- | --- |
| [2H]C([2H])([2H])Oc1ccc(C#N)c(-c2c(-c3cn(C)nc3C(F)F)[nH]c3ncccc23)c1 [EX. 381] | 76.1 ± 12.1 |

Each compound was assayed against T1, MRGPRX2 (Homo sapiens, UniProt Q96LB1) (assay: MRGPRX2 reporter cell assay (NFAT-RE luciferase, Substance P stimulation)). Settings: U2OS cells stably transfected with MRGPRX2 and NFAT-RE luciferase reporter; Substance P at EC80.
T1 sequence (Q96LB1 1-330): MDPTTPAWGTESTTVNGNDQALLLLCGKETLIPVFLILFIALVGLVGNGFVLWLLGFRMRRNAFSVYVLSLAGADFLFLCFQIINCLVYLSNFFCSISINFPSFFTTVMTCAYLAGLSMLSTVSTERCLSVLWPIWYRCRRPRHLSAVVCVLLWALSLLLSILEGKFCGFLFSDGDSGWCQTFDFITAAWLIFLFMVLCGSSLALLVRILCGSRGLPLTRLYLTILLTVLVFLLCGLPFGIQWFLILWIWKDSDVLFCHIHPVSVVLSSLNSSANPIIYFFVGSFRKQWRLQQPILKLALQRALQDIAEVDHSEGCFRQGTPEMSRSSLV
Type: cell-based
Method in brief: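 U2OS cells stably expressing MRGPRX2 and an NFAT-RE luc2P reporter, pre-incubated 30 min at 37° C with compound (0.5% DMSO), then stimulated with Substance P at EC80 for 6 h. Luminescence after ONE-GLO; percent inhibition fitted by four-parameter logistic to IC50.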

| IC50 [nM] | Structure (SMILES) |
| --- | --- |
| 3 | Cn1cc(-c2c(-c3c(C(F)F)nn4c3OC[C@@H](NC(=O)C3CC3)C4)[nH]c3ncccc23)c(OC(F)F)n1 [EX. 559] |
| 1.2 | COC(=O)N[C@@H]1COc2c(-c3[nH]c4ncccc4c3-c3cn(C)nc3OC(F)F)c(C(F)F)nn2C1 [EX. 571] |
| 3.6 | CCc1nn2c(c1-c1[nH]c3ncccc3c1-c1cn(C)nc1OC(F)F)OC[C@@H](NC(=O)OC)C2 [EX. 572] |

Same assay, conditions: U2OS cells stably transfected with MRGPRX2 and NFAT-RE luciferase reporter; Substance P at EC80; class symbols

| Structure (SMILES) | IC50 [nM] |
| --- | --- |
| Cn1cc(-c2c(-c3c(C(F)F)nn4c3OC[C@@H](NC(=O)C3CC3)C4)[nH]c3ncccc23)c(OC(F)F)n1 [EX. 559] | < 10 |
| Cn1cc(C(=O)N[C@@H]2COc3c(-c4[nH]c5ncccc5c4-c4cn(C)nc4OC(F)F)c(C(F)F)nn3C2)cn1 [EX. 562] | < 10 |
| Cn1cc(-c2c(-c3c(C(F)F)nn4c3OC[C@@H](NC(=O)[C@H]3C[C@@H](O)C3)C4)[nH]c3ncccc23)c(OC(F)F)n1 [EX. 564] | < 10 |
| Cn1cc(-c2c(-c3c(C(F)F)nn4c3OC[C@@H](NC(=O)[C@H]3C[C@H](O)C3)C4)[nH]c3ncccc23)c(OC(F)F)n1 [EX. 565] | < 10 |
| Cn1cc(-c2c(-c3c(C(F)F)nn4c3OC[C@@H](NC(=O)OC3CCOC3)C4)[nH]c3ncccc23)c(OC(F)F)n1 (some centres unmarked) [EX. 566] | < 10 |
| C[C@@H](O)COC(=O)N[C@@H]1COc2c(-c3[nH]c4ncccc4c3-c3cn(C)nc3OC(F)F)c(C(F)F)nn2C1 [EX. 568] | < 10 |
| Cn1cc(-c2c(-c3c(C(F)F)nn4c3OC[C@@H](NC(=O)N3CC(O)C3)C4)[nH]c3ncccc23)c(OC(F)F)n1 [EX. 569] | < 10 |
| COC(=O)N[C@@H]1COc2c(-c3[nH]c4ncccc4c3-c3cn(C)nc3OC(F)F)c(C(F)F)nn2C1 [EX. 571] | < 10 |
| CCc1nn2c(c1-c1[nH]c3ncccc3c1-c1cn(C)nc1OC(F)F)OC[C@@H](NC(=O)OC)C2 [EX. 572] | < 10 |
| CCOC(=O)N[C@@H]1COc2c(-c3[nH]c4ncccc4c3-c3cn(C)nc3OC(F)F)c(C(F)F)nn2C1 [EX. 573] | < 10 |
| Cn1cc(-c2c(-c3c(C(F)F)nn4c3OC[C@@H](NS(=O)(=O)C3(C)CC3)C4)[nH]c3ncccc23)c(OC(F)F)n1 [EX. 574] | < 10 |
| CC(C)OC(=O)N[C@@H]1COc2c(-c3[nH]c4ncccc4c3-c3cn(C)nc3OC(F)F)c(C(F)F)nn2C1 [EX. 575] | < 10 |
| Cn1cc(-c2c(-c3c(C(F)F)nn4c3OC[C@@H](NS(=O)(=O)CCO)C4)[nH]c3ncccc23)c(OC(F)F)n1 [EX. 577] | < 10 |
| COC(=O)N(C)[C@@H]1COc2c(-c3[nH]c4ncccc4c3-c3cn(C)nc3OC(F)F)c(C(F)F)nn2C1 [EX. 578] | < 10 |
| Cn1cc(-c2c(-c3c(C(F)F)nn4c3OC[C@@H](N3CCOC3=O)C4)[nH]c3ncccc23)c(OC(F)F)n1 [EX. 579] | < 10 |
| Cn1cc(-c2c(-c3c(C(F)F)nn4c3OC[C@@H](N3CCCS3(=O)=O)C4)[nH]c3ncccc23)c(OC(F)F)n1 [EX. 580] | < 10 |
| Cn1cc(-c2c(-c3c(C(F)F)nn4c3OC[C@@H](NS(=O)(=O)CCCO)C4)[nH]c3ncccc23)c(OC(F)F)n1 [EX. 581] | < 10 |
| Cn1cc(-c2c(-c3c(C(F)F)nn4c3OC[C@@H](NC(=O)C3(C(N)=O)CC3)C4)[nH]c3ncccc23)c(OC(F)F)n1 [EX. 585] | < 10 |
| Cn1cc(-c2c(-c3c(C(F)F)nn4c3OC[C@@H](NC(=O)C3CC3)C4)[nH]c3ncccc23)c(C#N)n1 [EX. 593, (S)—N-(3-(3-(3-cyano-1-methyl-1H-pyrazol-4-yl)-1H-pyrrolo[2,3-b]pyridin-2-yl)-2-(difluoromethyl)-6,7-dihydro-5H-pyrazolo[5,1-b] [1,3]oxazin-6-yl) cyclopropanecarboxamide] | < 10 |
| Cc1nn2c(c1-c1[nH]c3ncccc3c1-c1cccnc1OC(F)F)OC[C@@H](NC(=O)C1CC1)C2 [EX. 594, (S)—N-(3-(3-(2-(difluoromethoxy)pyridin-3-yl)-1H-pyrrolo[2,3-b]pyridin-2-yl)-2-methyl-6,7-dihydro-5H-pyrazolo[5,1-b] [1,3]oxazin-6-yl) cyclopropanecarboxamide] | < 10 |

Second part, the compound after the results:

| IC50 [nM] | Structure (SMILES) |
| --- | --- |
| < 10 | [2H]C([2H])([2H])Oc1ccc(C#N)c(-c2c(-c3cn(C)nc3C(F)F)[nH]c3ncccc23)c1 [EX. 381] |
| < 10 | Cn1cc(-c2c(-c3c(C(F)F)nn4c3OC[C@@H](NCCO)C4)[nH]c3ncccc23)c(OC(F)F)n1 [EX. 558] |
| < 10 | C[C@@H](O)C(=O)N[C@@H]1COc2c(-c3[nH]c4ncccc4c3-c3cn(C)nc3OC(F)F)c(C(F)F)nn2C1 [EX. 560] |
| < 10 | C[C@H](O)C(=O)N[C@@H]1COc2c(-c3[nH]c4ncccc4c3-c3cn(C)nc3OC(F)F)c(C(F)F)nn2C1 [EX. 561] |
| < 10 | Cn1cc(-c2c(-c3c(C(F)F)nn4c3OC[C@@H](NC(=O)[C@H]3C[C@@](C)(O)C3)C4)[nH]c3ncccc23)c(OC(F)F)n1 [EX. 563] |
| < 10 | C[C@H](O)COC(=O)N[C@@H]1COc2c(-c3[nH]c4ncccc4c3-c3cn(C)nc3OC(F)F)c(C(F)F)nn2C1 [EX. 567] |
| < 10 | CN(C)S(=O)(=O)N[C@@H]1COc2c(-c3[nH]c4ncccc4c3-c3cn(C)nc3OC(F)F)c(C(F)F)nn2C1 [EX. 576] |
| < 10 | CN[C@@H]1COc2c(-c3[nH]c4ncccc4c3-c3cn(C)nc3OC(F)F)c(C(F)F)nn2C1 [EX. 582, (S)-3-(3-(3-(difluoromethoxy)-1-methyl-1H-pyrazol-4-yl)-1H-pyrrolo[2,3-b]pyridin-2-yl)-2-(difluoromethyl)-N-methyl-6,7-dihydro-5H-pyrazolo[5,1-b] [1,3]oxazin-6-amine] |
| < 10 | Cn1cc(-c2c(-c3c(C(F)F)nn4c3OC[C@@H](OCC(N)=O)C4)[nH]c3ncccc23)c(OC(F)F)n1 [EX. 583, (S)-2-((3-(3-(3-(difluoromethoxy)-1-methyl-1H-pyrazol-4-yl)-1H-pyrrolo[2,3-b]pyridin-2-yl)-2-(difluoromethyl)-6,7-dihydro-5H-pyrazolo[5,1-b] [1,3]oxazin-6-yl)oxy) acetamide] |
| < 10 | Cn1cc(-c2c(-c3c(C(F)F)nn4c3OC[C@@H](NC(=O)OCC(N)=O)C4)[nH]c3ncccc23)c(OC(F)F)n1 [EX. 584] |
| < 10 | Cn1cc(-c2c(-c3c(C(F)F)nn4c3OC[C@@H](NC(=O)CC(C)(C)O)C4)[nH]c3ncccc23)c(OC(F)F)n1 [EX. 586, (S)—N-(3-(3-(3-(difluoromethoxy)-1-methyl-1H-pyrazol-4-yl)-1H-pyrrolo[2,3-b]pyridin-2-yl)-2-(difluoromethyl)-6,7-dihydro-5H-pyrazolo[5,1-b] [1,3]oxazin-6-yl)-3-hydroxy-3-methylbutanamide] |
| < 10 | Cn1cc(-c2c(-c3c(C(F)F)nn4c3OC[C@@H](NC(=O)C(C)(C)O)C4)[nH]c3ncccc23)c(OC(F)F)n1 [EX. 587] |
| < 10 | Cn1cc(-c2c(-c3c(C(F)F)nn4c3OC[C@@H](NC(=O)C3(F)CC3)C4)[nH]c3ncccc23)c(OC(F)F)n1 [EX. 588] |
| < 10 | Cn1cc(-c2c(-c3c(C(F)F)nn4c3OC[C@@H](NC(=O)C3(O)CC3)C4)[nH]c3ncccc23)c(OC(F)F)n1 [EX. 589] |
| < 10 | CNC(=O)COC(=O)N[C@@H]1COc2c(-c3[nH]c4ncccc4c3-c3cn(C)nc3OC(F)F)c(C(F)F)nn2C1 [EX. 590] |
| < 10 | N#Cc1ncccc1-c1c(-c2c(C(F)F)nn3c2OC[C@@H](NC(=O)C2CC2)C3)[nH]c2ncccc12 [EX. 591] |
| < 10 | C[C@H](O)CN(C)C(=O)N[C@@H]1COc2c(-c3[nH]c4ncccc4c3-c3cn(C)nc3OC(F)F)c(C(F)F)nn2C1 [EX. 595, 3-((S)-3-(3-(3-(difluoromethoxy)-1-methyl-1H-pyrazol-4-yl)-1H-pyrrolo[2,3-b]pyridin-2-yl)-2-(difluoromethyl)-6,7-dihydro-5H-pyrazolo[5,1-b] [1,3]oxazin-6-yl)-1-((S)-2-hydroxypropyl)-1-methylurea] |

Reference: patent publication US20250326772A1, “MRGPRX2 ANTAGONISTS, PHARMACEUTICAL COMPOSITION INCLUDING MRGPRX2 ANTAGONIST, AND METHOD OF TREATING MRGPRX2-MEDIATED DISEASE OR DISORDER” (KYORIN PHARMACEUTICAL CO., LTD., priority 2024, published 2025)
